Square brackets hold non-standard residues; d marks the D form. Ends that are not written are not given here. Peptide text beside a SMILES is read from it. Phe(4-F) = N[CH](Cc1ccc(F)cc1)C(=O)O; Dopa = N[CH](Cc1ccc(O)c(O)c1)C(=O)O

For one data set, the system named is Escherichia Coli. The experiment in a line: Adherence of Escherichia Coli to bare and peptide coated substrates (live bacteria count after biofilm formation). It is filed as cell-based. The conditions noted are these: peptide-coated Ti, overnight incubation in bacteria medium, CFU plate counts. On the procedure:
To assess the bacterial attachment to the surfaces and the anti-fouling activity of the peptides, the adherence of Escherichia Coli to bare and peptide coated substrates was promoted. Following this, the surfaces incubated overnight in the bacteria medium to enable the biofilm formation. After the incubation, the surfaces were slowly rinsed, swabbed the adhered bacteria and seeded them in order to evaluate the number of live bacteria on the substrates. […] Escherichia coli were grown in LB medium for 5.5 hours at 37° C. in loosely capped erlenmeyer flask with agitation (120 rpm). […] Afterward, LB media (2 mL) were added to each well and the plates were incubated at 37° C. overnight. Each surface was rinsed by shaking the surface in sterilized water three times. A sterile swab was then used to pick up the biofilms attached to the surfaces. The swabs were inserted into eppendorf tubes containing 1 mL of sterilized water and vortexed for 1 min. Each sample was decimally diluted and plated out on dried LB agar (10 g LB and 7.5 g agar per 0.5 L TDW) plate (8 drops of 10 ul for each dilution). Plate counts (CFU mL-1) were carried out after incubation over night at 37° C. The data presents 3 experiments with triplicates for each experiment. The data is given as mean values ±standard deviations. Significant differences between group means were analyzed by t-test and confidence levels were set at 95%.

Data set [1] can be described thus: Peptide layer thickness on Ti by XPS. In kind it is physicochemical. The conditions noted are these: peptide-coated Ti substrate. The text has this:
Using X-ray Photoelectron Spectrometry (XPS) analysis, the presence of fluorine atoms on the surface and the thickness of the peptide layer were characterized. As expected, in the case of a bare titanium, there was no indication of the presence of fluorine, while in all cases of substrate-coated with peptides, the presence of fluorine signal indicated the deposition of the peptides on the surface (FIG. 3).

As for `N=C(N)NCCCC(NC(=O)C(Cc1ccc(F)cc1)NC(=O)C(Cc1ccc(F)cc1)NC(=O)C(N)Cc1ccc(O)c(O)c1)C(=O)NCC(=O)NC(CC(=O)O)C(N)=O` (stereo not drawn) [Peptide 1, DOPA-Phe(4F)-Phe(4F)-Arg-Gly-Asp] (H-[Dopa][Phe(4-F)][Phe(4-F)]RGD-NH2; configuration not given here), the “reduction of live bacteria on substrate as compared to a bare Ti surface” value (“reduction of live bacteria on substrate” below) in the data set on Escherichia Coli is listed as “up to 80%”. The “thickness of the peptide layer (XPS)” value in data set [1] was found to be 4.74 nm.

Regarding `N=C(N)NCCCC(NC(=O)C(Cc1ccc(O)c(O)c1)NC(=O)C(Cc1ccc(F)cc1)NC(=O)C(N)Cc1ccc(F)cc1)C(=O)NCC(=O)NC(CC(=O)O)C(N)=O` (stereo not drawn) [Peptide 2] (H-[Phe(4-F)][Phe(4-F)][Dopa]RGD-NH2; configuration not given here), the “reduction of live bacteria on substrate” value in the data set on Escherichia Coli is reported as not above 82%. Moreover, the “thickness of the peptide layer (XPS)” value in data set [1] was found to be 4.33 nm.

Consider `N=C(N)NCCCC(NC(=O)C(Cc1ccc(F)cc1)NC(=O)C(CC(=O)O)NC(=O)C(N)Cc1ccc(O)c(O)c1)C(=O)NC(Cc1ccc(F)cc1)C(=O)NCC(N)=O` (stereo not drawn) [Peptide 3] (H-[Dopa]D[Phe(4-F)]R[Phe(4-F)]G-NH2; configuration not given here), for which the “reduction of live bacteria on substrate” value with Escherichia Coli is on record as “up to 72%”.

Take “Peptide 4: control peptide with the same amino acids in mixed sequence, without the cell adhesion and the anti-fouling elements ([Dopa][Phe(4-F)]DG[Phe(4-F)]R; not fully specified (C-terminus))”: the “reduction of live bacteria on substrate” value in the data set on Escherichia Coli is reported as not above 62%.

The values above are taken from US11925724B2, “Compounds with dual activity” (priority 2015, dated 2024).
